{"source": "patent US10765754B2", "about": "“Compositions and methods related to inhibition of respiratory syncytial virus entry” (priority 2015, dated 2020)", "note": "Positions of bridges follow the written chain, without caps; N, C: chain ends. Non-standard residues stand in square brackets, D forms with d. Residues, ends and D or L forms follow the SMILES beside them."}
{"target": "T1, RSV-B/IZN45 (Human respiratory syncytial virus B, UniProt O36634)", "T1 construct": "N-trimer Mimics Synthesized; made in house; host or cells: chemical peptide synthesis", "T1 sequence (O36634 163-207, added parts left off)": "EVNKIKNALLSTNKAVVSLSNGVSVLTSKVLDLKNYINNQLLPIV", "assay": "biochemical", "assay_type": "binding", "conditions": "synthesized peptide; RSV-B/IZN45; KD determined by SPR", "text": "IZN45 N-trimer mimic comprises the IZ domain, a highly soluble, designed coiled-coil that helps solubilize the N-trimer, along with the C-terminal (bottom) 45 residues of the RSV N-trimer. IZN45 encompasses the full ordered portion of the N-trimer except for three N-terminal residues (removed to maintain a continuous heptad repeat with the IZ domain). The interactions between 35-residue RSV C-peptides, T108 and T118 (Lambert et al., 1996, Proc. Natl. Acad. Sci. USA 93:2186-2191), and IZN45 was examined by surface plasmon resonance (SPR). SPR is a gold standard assay to measure the kinetics and affinity of biological interactions. […] The Biotinylated L-form of RSV target IZN45 was captured onto one lane of a NeutrAvidin coated SPR chip. A mutant version of IZN45 containing four mutated residues along the N-trimer groove designed to disrupt binding (IZN45 Full Mut, negative control) was captured onto a separate lane of the NeutrAvidin chip. T118, corresponding to the C-terminal portion of the RSV F ectodomain, which is known to interact with the RSV N-trimer groove, was flowed over the various surfaces. […] The surfaces were regenerated with a detergent (0.1% SDS) after each injection of analyte. Various concentrations of T118 were measured in duplicate or triplicate injections. D-peptide interactions with IZN45 and IZN45-Full Mut surfaces were also measured using this method.\nPeptides from the ‘winning’ phage clones from each library were synthesized as D-peptides. If solubility of the peptides was limited, N- or C-terminal charged residue(s) (e.g., lysine) were attached as necessary as previously described for HIV peptides in Eckert et al., 1999, Cell 99:103-15, incorporated by reference in its entirety. Binding affinity and kinetics of the D-peptide inhibitors to the IZN45 and IZN45 mutants was characterized by SPR (Biacore 3000), using methods as described in Welch et al., 2007, Proc. Natl. Acad. Sci. USA 104:16828-33, incorporated by reference in its entirety.", "units": {"Kd": "µM"}}
{"smiles": "CC[C@@H](C)[C@H]1NC(=O)[C@@H](CCCCN)NC(=O)[C@H](NC(=O)[C@@H](C)NC(=O)CNC(C)=O)CSSC[C@H](C(=O)N[C@H](C)C(=O)N[C@H](C)C(=O)NCC(=O)NCC(N)=O)NC(=O)[C@@H](CC(=O)O)NC(=O)[C@@H](Cc2c[nH]cn2)NC(=O)[C@@H](Cc2c[nH]c3ccccc23)NC(=O)[C@@H](Cc2c[nH]cn2)NC(=O)[C@@H](Cc2ccccc2)NC(=O)[C@@H](CC(C)C)NC(=O)[C@@H](CC(=O)O)NC(=O)[C@@H](Cc2c[nH]cn2)NC1=O", "note": "[Ac-CX10C-119-GG] (Ac-G[dA][dC][dK][dI][dH][dD][dL][dF][dH][dW][dH][dD][dC][dA][dA]GG-NH2; disulfide 3-14)", "Kd": 30}
{"smiles": "CC[C@@H](C)[C@H]1NC(=O)[C@@H](CCCCN)NC(=O)[C@H](NC(=O)[C@@H](C)NC(=O)CNC(C)=O)CSSC[C@H](C(=O)N[C@H](C)C(=O)N[C@H](C)C(N)=O)NC(=O)[C@@H](CC(=O)O)NC(=O)[C@@H](Cc2c[nH]cn2)NC(=O)[C@@H](Cc2c[nH]c3ccccc23)NC(=O)[C@@H](Cc2c[nH]cn2)NC(=O)[C@@H](Cc2ccccc2)NC(=O)[C@@H](CC(C)C)NC(=O)[C@@H](CC(=O)O)NC(=O)[C@@H](Cc2c[nH]cn2)NC1=O", "note": "[Ac-CX10C-119] (Ac-G[dA][dC][dK][dI][dH][dD][dL][dF][dH][dW][dH][dD][dC][dA][dA]-NH2; disulfide 3-14)", "Kd": 280}
{"smiles": "CC[C@@H](C)[C@@H](NC(C)=O)C(=O)N[C@H](CO)C(=O)N[C@H](CC(C)C)C(=O)N1CCC[C@@H]1C(=O)N[C@@H](C(=O)N1CCC[C@@H]1C(=O)N[C@@H](C(=O)N[C@H](Cc1c[nH]c2ccccc12)C(=O)N[C@H](Cc1c[nH]c2ccccc12)C(=O)N1CCC[C@@H]1C(=O)N[C@H](CO)C(=O)N[C@@H](C(=O)NCC(=O)NCC(N)=O)[C@H](C)O)[C@H](C)O)[C@H](C)O", "note": "[Ac-X12-45-GG] (Ac-[dI][dS][dL][dP][dT][dP][dT][dW][dW][dP][dS][dT]GG-NH2)", "Kd": 25}
{"smiles": "CC[C@@H](C)[C@@H](NC(C)=O)C(=O)N[C@H](CO)C(=O)N[C@H](CC(C)C)C(=O)N1CCC[C@@H]1C(=O)N[C@@H](C(=O)N1CCC[C@@H]1C(=O)N[C@@H](C(=O)N[C@H](Cc1c[nH]c2ccccc12)C(=O)N[C@H](Cc1c[nH]c2ccccc12)C(=O)N1CCC[C@@H]1C(=O)N[C@H](CO)C(=O)N[C@@H](C(=O)NCC(=O)N[C@H](CCCCN)C(N)=O)[C@H](C)O)[C@H](C)O)[C@H](C)O", "note": "[Ac-X12-45-GK] (Ac-[dI][dS][dL][dP][dT][dP][dT][dW][dW][dP][dS][dT]G[dK]-NH2)", "Kd": 23}
{"smiles": "CC[C@@H](C)[C@@H](NC(=O)[C@H](NC(=O)[C@@H](CCCCN)NC(=O)[C@@H](CO)NC(C)=O)C(C)C)C(=O)N[C@H](CC(C)C)C(=O)N1CCC[C@@H]1C(=O)N[C@H](CCC(=O)O)C(=O)N1CCC[C@@H]1C(=O)N[C@H](Cc1ccccc1)C(=O)N[C@H](Cc1c[nH]c2ccccc12)C(=O)N[C@H](Cc1c[nH]c2ccccc12)C(=O)N1CCC[C@@H]1C(=O)NCC(=O)NCC(N)=O", "note": "[Ac-X12-47-GG] (Ac-[dS][dK][dV][dI][dL][dP][dE][dP][dF][dW][dW][dP]GG-NH2)", "Kd": 15}
{"smiles": "CSCC[C@@H](NC(=O)[C@@H](Cc1c[nH]c2ccccc12)NC(=O)[C@@H](Cc1c[nH]c2ccccc12)NC(=O)[C@@H](Cc1ccc(O)cc1)NC(=O)[C@@H](CCCCN)NC(=O)[C@@H](CC(C)C)NC(=O)[C@@H](CO)NC(C)=O)C(=O)N[C@H](CCC(=O)O)C(=O)N[C@H](CCC(=O)O)C(=O)N[C@H](CC(C)C)C(=O)N1CCC[C@@H]1C(=O)N[C@H](CC(C)C)C(=O)N1CCC[C@@H]1C(=O)N[C@H](CCCCN)C(=O)N[C@H](Cc1c[nH]c2ccccc12)C(=O)N[C@H](Cc1c[nH]c2ccccc12)C(=O)NCC(=O)NCC(N)=O", "note": "[Ac-X16-18-GG] (Ac-[dS][dL][dK][dY][dW][dW][dM][dE][dE][dL][dP][dL][dP][dK][dW][dW]GG-NH2)", "Kd": 5.4}
{"smiles": "CSCC[C@@H](NC(=O)[C@@H](Cc1c[nH]c2ccccc12)NC(=O)[C@@H](Cc1c[nH]c2ccccc12)NC(=O)[C@@H](Cc1ccc(O)cc1)NC(=O)[C@@H](CCCCN)NC(=O)[C@@H](CC(C)C)NC(=O)[C@@H](CO)NC(C)=O)C(=O)N[C@H](CCC(=O)O)C(=O)N[C@H](CCC(=O)O)C(=O)N[C@H](CC(C)C)C(=O)N1CCC[C@@H]1C(=O)N[C@H](CC(C)C)C(=O)N1CCC[C@@H]1C(=O)N[C@H](CCCCN)C(=O)N[C@H](Cc1c[nH]c2ccccc12)C(=O)N[C@H](Cc1c[nH]c2ccccc12)C(N)=O", "note": "[Ac-X16-18] (Ac-[dS][dL][dK][dY][dW][dW][dM][dE][dE][dL][dP][dL][dP][dK][dW][dW]-NH2)", "Kd": 11}
{"smiles": "CC(C)C[C@H]1NC(=O)[C@@H](CC(=O)O)NC(=O)[C@@H](Cc2c[nH]c3ccccc23)NC(=O)[C@@H]([C@H](C)O)NC(=O)[C@@H](Cc2c[nH]cn2)NC(=O)[C@H](NC(=O)[C@@H](C)NC(=O)CN)CSSC[C@H](C(=O)N[C@H](C)C(=O)N[C@H](C)C(=O)NCC(=O)N[C@H](CCCCN)C(N)=O)NC(=O)[C@@H](C(C)C)NC(=O)[C@@H](CC(=O)O)NC(=O)[C@@H](CC(C)C)NC(=O)[C@@H](Cc2c[nH]cn2)NC(=O)[C@@H](CC(N)=O)NC1=O", "note": "[CX10C-86-GK] (H-G[dA][dC][dH][dT][dW][dD][dL][dN][dH][dL][dD][dV][dC][dA][dA]G[dK]-NH2; disulfide 3-14)", "Kd": 350}
{"smiles": "CC[C@@H](C)[C@H]1NC(=O)[C@@H](CCCCN)NC(=O)[C@H](NC(=O)[C@@H](C)NC(=O)CN)CSSC[C@H](C(=O)N[C@H](C)C(=O)N[C@H](C)C(=O)NCC(=O)NCC(N)=O)NC(=O)[C@@H](CC(=O)O)NC(=O)[C@@H](Cc2c[nH]cn2)NC(=O)[C@@H](Cc2c[nH]c3ccccc23)NC(=O)[C@@H](Cc2c[nH]cn2)NC(=O)[C@@H](Cc2ccccc2)NC(=O)[C@@H](CC(C)C)NC(=O)[C@@H](CC(=O)O)NC(=O)[C@@H](Cc2c[nH]cn2)NC1=O", "note": "[CX10C-119-GG] (H-G[dA][dC][dK][dI][dH][dD][dL][dF][dH][dW][dH][dD][dC][dA][dA]GG-NH2; disulfide 3-14)", "Kd": 130}
{"smiles": "CC[C@@H](C)[C@H]1NC(=O)[C@@H](CCCCN)NC(=O)[C@H](NC(=O)[C@@H](C)NC(=O)CN)CSSC[C@H](C(=O)N[C@H](C)C(=O)N[C@H](C)C(N)=O)NC(=O)[C@@H](CC(=O)O)NC(=O)[C@@H](Cc2c[nH]cn2)NC(=O)[C@@H](Cc2c[nH]c3ccccc23)NC(=O)[C@@H](Cc2c[nH]cn2)NC(=O)[C@@H](Cc2ccccc2)NC(=O)[C@@H](CC(C)C)NC(=O)[C@@H](CC(=O)O)NC(=O)[C@@H](Cc2c[nH]cn2)NC1=O", "note": "[CX10C-119] (H-G[dA][dC][dK][dI][dH][dD][dL][dF][dH][dW][dH][dD][dC][dA][dA]-NH2; disulfide 3-14)", "Kd": 100}
{"smiles": "CC[C@@H](C)[C@@H](N)C(=O)N[C@H](CO)C(=O)N[C@H](CC(C)C)C(=O)N1CCC[C@@H]1C(=O)N[C@@H](C(=O)N1CCC[C@@H]1C(=O)N[C@@H](C(=O)N[C@H](Cc1c[nH]c2ccccc12)C(=O)N[C@H](Cc1c[nH]c2ccccc12)C(=O)N1CCC[C@@H]1C(=O)N[C@H](CO)C(=O)N[C@@H](C(=O)NCC(=O)NCC(N)=O)[C@H](C)O)[C@H](C)O)[C@H](C)O", "note": "[X12-45-GG] (H-[dI][dS][dL][dP][dT][dP][dT][dW][dW][dP][dS][dT]GG-NH2)", "Kd": 11}
